# Reference: ChEMBL document CHEMBL1128373, “A-ring ortho-disubstituted aporphine derivatives as potential agonists or antagonists at serotonergic 5-HT1A receptors” (J Med Chem, 1995)
# Active and inactive are the calls of the source. No cut-off for these calls is given here.
# Tests used:
# Assay type in all cases: tissue-based
# Details in all cases: Cavia porcellus, target entry is the homologue from another species
# [1] = biological target: T1, 5-hydroxytryptamine receptor 1A (Homo sapiens) (UniProt P08908); experiment: Ability to antagonize electrical induced contractile responses in Guinea pig ileum for 5-HT1A receptor.
# T1 sequence (whole entry): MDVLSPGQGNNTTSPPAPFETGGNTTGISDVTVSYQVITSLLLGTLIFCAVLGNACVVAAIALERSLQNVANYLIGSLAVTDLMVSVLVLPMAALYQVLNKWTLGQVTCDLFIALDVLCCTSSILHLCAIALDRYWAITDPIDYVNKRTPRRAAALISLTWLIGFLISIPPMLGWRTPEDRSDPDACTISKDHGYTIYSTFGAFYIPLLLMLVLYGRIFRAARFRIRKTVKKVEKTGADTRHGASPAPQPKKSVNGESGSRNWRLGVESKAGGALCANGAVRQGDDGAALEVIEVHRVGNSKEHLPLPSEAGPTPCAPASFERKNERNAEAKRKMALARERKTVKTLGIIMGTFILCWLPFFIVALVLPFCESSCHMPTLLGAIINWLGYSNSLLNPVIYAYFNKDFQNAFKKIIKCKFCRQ
# [2] = biological target: T1, 5-hydroxytryptamine receptor 1A (Homo sapiens); experiment: Ability to antagonize Acetylcholine induced contractile responses in Guinea pig ileum for 5-HT1A receptor.
# [3] = biological target: T1, 5-hydroxytryptamine receptor 1A (Homo sapiens); experiment: Ability to antagonize Acetylcholine induced contractile responses in Guinea pig ileum for 5-HT1A receptor. Inactive at dose level of 1.0 uM
# [4] = biological target: T1, 5-hydroxytryptamine receptor 1A (Homo sapiens); experiment: Ability to antagonize electrical induced contractile responses in Guinea pig ileum for 5-HT1A receptor; Inactive at dose level of 1.0 uM
# [5] = biological target: T1, 5-hydroxytryptamine receptor 1A (Homo sapiens); experiment: Ability to antagonize electrical induced contractile responses in Guinea pig ileum for 5-HT1A receptor. Inactive at dose level of 1.0 uM
Structure (SMILES),ED50 [1] [µM],ED50 [2] [µM],ED50 [3],ED50 [4],ED50 [5]
Cc1ccc2c(c1O)-c1cccc3c1[C@@H](C2)N(C)CC3,0.05,,,,
"COc1cc2c(cc1C)-c1cccc3c1C(C2)N(C)CC3 (single isomer, unassigned; (+))",5.4,24.9,,,
"Cc1cc2c(cc1O)-c1cccc3c1C(C2)N(C)CC3 (single isomer, unassigned; (+))",,,inactive,inactive,
"Cc1cc2c(cc1O)CC1c3c(cccc3-2)CCN1C (single isomer, unassigned; (+))",,,inactive,,inactive
"COc1cc2c(cc1C)-c1cccc3c1C(C2)N(C)CC3 (single isomer, unassigned; (-))",5,2.7,,,
"Cc1cc2c(cc1O)-c1cccc3c1C(C2)N(C)CC3 (single isomer, unassigned; (-))",,,inactive,,inactive
"Cc1cc2c(cc1O)CC1c3c(cccc3-2)CCN1C (single isomer, unassigned; (-))",,,inactive,,inactive
COc1cc2c(cc1C)CC1c3c(cccc3-2)CCN1C (stereo in doubt; (+)-9),5.9,36.6,,,
COc1cc2c(cc1C)CC1c3c(cccc3-2)CCN1C (stereo in doubt; (-)-9),2.6,11.4,,,
